# Patent US20130261077A1 (priority 2012, published 2013)
# Target: T1, FimH-CRD (Escherichia coli, UniProt P08191)
# T1 construct: The first 177 amino acids of the FimH protein; thrombin tag (printed as 'fusion protein with thrombin') (cleaved yes); made in house; host or cells: bacteria (pET21b plasmid)
# Assay: Competitive binding assay by fluorescence polarization, assay 1 (compounds prepared by manual serial dilution)
# Procedure: The first 177 amino acids of the FimH protein were expressed as a fusion protein with thrombin in a pET21b plasmid in bacteria. This FimH protein sequence contains the carbohydrate recognition domain (CRD) and shall be termed FimH-CRD. Following bacterial expression of the protein, the FimH-CRD protein was purified to homogeneity and the thrombin tag removed by protease cleavage. A competitive binding assay by fluorescence polarization was performed using 5 nM of the Alexa 647 mannoside probe and 60 nM of the FimH-CRD. The samples are assayed in a low volume 384 well microtiter plate in a final volume of 20 μl. The final assay buffer conditions are the following, 50 mM Tris-Cl, ph 7.0, 100 mM NaCl, 1 mM EDTA, 5 mM β-mercaptoethanol, 0.05% BSA and 2.5% DMSO. Two assays are performed for FimH, termed assay 1 or assay 2. The assay conditions are the same for both assays except the following: assay 1 has compounds prepared by manual dilution in a serial dilution factor with 12-point dose response while assay 2 has compounds prepared by a robotics system also through a serial dilution factor (12 point dose response) and initially prepared in duplicate in 384 well-Corning polypropylene round bottom plates. The assay 2 plates have compound which is then frozen and must be thawed prior to use. Initially the Alexa 647 probe and the FimH-CRD are added to the assay buffer and then 0.5 μl of test compound (assay 1 or 2) between 0.4 nM to 75 μM final concentration are added (12 point titration with 3-fold serial dilution). Control wells for the Alexa 647 probe are prepared with the same conditions except for the addition of the FimH-CRD protein. Plates are then incubated for 5 hrs at room temperature in the dark and under humid conditions to prevent drying. Plates are read using the SpectraMax Paradigm multi-mode plate reader and the appropriate fluorescent polarization detection cartridge (Alexa-647).
# Alexa 647 mannoside probe is prepared using the similar procedure reported for FAM mannoside (Han, Z. et. al., 2010, J. Med. Chem., 53, 4779) and is described in the scheme below.
# To a blue colored stirred solution of (2S,3S,4S,5S,6R)-2-(4-aminobutoxy)-6-(hydroxymethyl)tetrahydropyran-3,4,5-triol (2.21 mg, 0.009 mmol) and the (2E)-2-[(2E,4E)-5-[3,3-dimethyl-5-sulfonato-1-(3-sulfonatopropyl)indol-1-ium-2-yl]penta-2,4-dienylidene]-3-[6-(2,5-dioxopyrrolidin-1-yl)oxy-6-oxo-hexyl]-3-methyl-1-(3-sulfonatopropyl)indoline-5-sulfonate (Potassium Ion (3)) (4.9 mg, 0.0044 mmol) in DMF (44 μL) is added Et3N (5.4 mg, 7.0 μL, 0.053 mmol) at RT. The solution is stirred at room temperature over night, concentrated, dissolved in water and purified on 12 g C-18 silica gel cartridge on Isolera system using acetonitrile in water (0 to 40%, 10 CV) and followed by lyophilization to afford Alexa 647 mannoside probe (3.3 mg, 34%) as deep blue solid.
# The Kd values of the compounds are determined from dose response curves using twelve concentrations per compound in duplicate. Curves are fitted to data points using Fluorescence Polarization competitive displacement analysis, and Kds are interpolated from the resulting curves using GraphPad Prism software, version […] (GraphPad software Inc., San Diego, Calif., USA).
# T1 sequence (P08191 22-177): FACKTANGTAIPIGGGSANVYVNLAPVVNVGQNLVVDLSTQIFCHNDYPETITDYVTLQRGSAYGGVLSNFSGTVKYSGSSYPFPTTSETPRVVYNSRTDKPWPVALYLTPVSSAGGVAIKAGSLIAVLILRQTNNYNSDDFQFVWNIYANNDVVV
Structure (SMILES),IC50,Kd
"OC[C@H]1O[C@H](c2cccc(F)c2)[C@@H](O)[C@@H](O)[C@@H]1O [Compound 47, (2R,3S,4R,5S,6R)-2-(3-fluorophenyl)-6-(hydroxymethyl)tetrahydropyran-3,4,5-triol]",163 nM,40.6 ± 10.4 nM
"CC(C)C(=O)Nc1ccc(-c2cccc([C@H]3O[C@H](CO)[C@@H](O)[C@H](O)[C@@H]3O)c2)cc1 [Compound 49, 2-methyl-N-[4-[3-[(2R,3S,4R,5S,6R)-3,4,5-trihydroxy-6-(hydroxymethyl)tetrahydropyran-2-yl]phenyl]phenyl]propanamide]",45 nM,6.3 ± 1.4 nM
"CNS(=O)(=O)c1cccc(-c2cccc([C@H]3O[C@H](CO)[C@@H](O)[C@H](O)[C@@H]3O)c2)c1 [Compound 50, N-methyl-3-[3-[(2R,3S,4R,5S,6R)-3,4,5-trihydroxy-6-(hydroxymethyl)tetrahydropyran-2-yl]phenyl]benzenesulfonamide]",39 nM,10.7 ± 5.2 nM
"COC(=O)c1cc(Oc2cccc([C@H]3O[C@H](CO)[C@@H](O)[C@H](O)[C@@H]3O)c2)cc(C(=O)OC)c1 [Compound 51, Dimethyl 5-[3-[(2R,3S,4R,5S,6R)-3,4,5-trihydroxy-6-(hydroxymethyl)tetrahydropyran-2-yl]phenoxy]benzene-1,3-dicarboxylate]",33 nM,5.2 ± 0.1 nM
"COC(=O)c1ccc(Oc2cccc([C@H]3O[C@H](CO)[C@@H](O)[C@H](O)[C@@H]3O)c2)cc1 [Compound 52, Methyl 4-[3-[(2R,3S,4R,5S,6R)-3,4,5-trihydroxy-6-(hydroxymethyl)tetrahydropyran-2-yl]phenoxy]benzoate]",23 nM,< 5 nM
"COC(=O)Cc1ccc(Oc2ccc([C@H]3O[C@H](CO)[C@@H](O)[C@H](O)[C@@H]3O)cc2)cc1 [Compound 55, methyl 2-(4-(4-((2R,3S,4R,5S,6R)-3,4,5-trihydroxy-6-(hydroxymethyl)tetrahydro-2H-pyran-2-yl)phenoxy)phenyl)acetate]",35 nM,6.3 ± 0.4 nM
"COC(=O)c1cccc(Oc2ccc([C@H]3O[C@H](CO)[C@@H](O)[C@H](O)[C@@H]3O)cc2)c1 [Compound 56, Methyl 3-(4-((2R,3S,4R,5S,6R)-3,4,5-trihydroxy-6-(hydroxymethyl)tetrahydro-2H-pyran-2-yl)phenoxy)benzoate]",14 nM,5.4 ± 0.3 nM
"OC[C@H]1O[C@H](c2cccc(Oc3ccc(F)cc3)c2)[C@@H](O)[C@@H](O)[C@@H]1O [Compound 57, (2R,3S,4R,5S,6R)-2-[3-(4-fluorophenoxy)phenyl]-6-(hydroxymethyl)tetrahydropyran-3,4,5-triol]",76 nM,13.2 ± 0.2 nM
"Cc1cc(C)cc(Oc2cccc([C@H]3O[C@H](CO)[C@@H](O)[C@H](O)[C@@H]3O)c2)c1 [Compound 58, (2R,3S,4R,5S,6R)-2-[3-(3,5-dimethylphenoxy)phenyl]-6-(hydroxymethyl)tetrahydropyran-3,4,5-triol]",66 nM,11.1 ± 1.6 nM
"OC[C@H]1O[C@H](c2cccc(Oc3ccccc3)c2)[C@@H](O)[C@@H](O)[C@@H]1O [Compound 59, (2R,3S,4R,5S,6R)-2-(hydroxymethyl)-6-(3-phenoxyphenyl)tetrahydropyran-3,4,5-triol]",26 nM,6.3 ± 0.9 nM
"COc1ccc([C@H]2O[C@H](CO)[C@@H](O)[C@H](O)[C@@H]2O)cc1O [Compound 61, (2R,3S,4R,5S,6R)-2-(3-hydroxy-4-methoxy-phenyl)-6-(hydroxymethyl)tetrahydropyran-3,4,5-triol]",42 nM,17.2 ± 10.7 nM
"CNC(=O)c1cc(C(=O)NC)cc(-c2cccc([C@H]3O[C@H](CO)[C@@H](O)[C@H](O)[C@@H]3O)c2)c1 [Compound 63, N^3,N^5-dimethyl-3′-((2R,3S,4R,5S,6R)-3,4,5-trihydroxy-6-(hydroxymethyl)tetrahydro-2H-pyran-2-yl)-[1,1′-biphenyl]-3,5-dicarboxamide]",19 nM,25.4 ± 14.4 nM
